Several values for one entry are separate records, joined by “and”; a condition that tells them apart may be missing. Identical values can stand only once. Like-named read-outs stand apart in the source and are kept apart here.
Experiments:
[1] = mice, IV; cited from earlier work
[2] = humans; cited from earlier work
[3] = rats, IV; cited from earlier work
[4] = Physiological monitoring (SaO2, heart rate, respiratory rate, ECG) during MRI, pre versus post contrast agent; format: in vivo; conditions: for changes in SaO2, HR, RR or ECG parameters (ST, T wave morphology, rhythm), pre versus post contrast agent: up to 2 hours after contrast agent
Text: Wild type C57BL/6 mice 6-10 months of age (25-30 gr) were used in all experiments. Since variations in physiological processes can influence the MRI signal in the brain, various monitoring devices were used while the mouse was being imaged. Heart rate, respiratory rate and SaO2 were continuously monitored using pulse oximetry (Model V33304, Sergivet). The probe was attached to the lower abdomen. A rectal temperature was continuously monitored with a thermestor (YSI Precision Thermometer 4000A).
ECG was monitored in a physiogard (SM 785, Brucker) by using subcutaneous silver electrodes from the front limbs and the reference electrode placed at the right posterior limb.
Comparisons were made within the groups pre with post contrast agent up to 2 hours after IV (feridex or gadodiamide) or IP GD (10 mmol/kg) (Table 1).
Thus, 10 mmol/kg was identified as the optimum dose of GD, and this dose was used for all further experiment unless otherwise indicated. […] Since the goal is to keep scan time as short as possible, in order to minimize morbidity and mortality, a 45 minutes time point was identified as the optimum post-contrast time interval.

[5] = IP 15 mmol/kg, individual mice with toxicity, listed as GD

Q: For `CNC(=O)CN(CCN(CCN(CC(=O)[O-])CC(=O)NC)CC(=O)[O-])CC(=O)[O-].[Gd+3]` [gadodiamide], which elimination half-life [1] is on record?
A: 5 to 6 min

Q: What about the elimination half-life [2] of the same compound?
A: approximately 1.5 hours

Q: And the elimination half-life [3]?
A: about 20 minutes

Q: What about the “changes in SaO2, HR, RR or ECG parameters (ST, T wave morphology, rhythm), pre versus post contrast agent” value ([4]; IP 10 mmol/kg) of the same compound?
A: No significant changes

Q: And the “RR (respiratory rate)” value [4, 5]?
A: 100 and 110

Q: And the SaO2 [4, 5]?
A: 72 and 65

Q: And the “toxicity (significant changes in vital signs)” value ([4]; IP 15 mmol/kg, two mice, procedure aborted)?
A: caused toxicity

Q: What about the “changes in SaO2, HR, RR or ECG parameters (ST, T wave morphology, rhythm), pre versus post contrast agent” value ([4]; IV) of the same compound?
A: No significant changes
